# Source: US9238039B2, “Pyrazolo[1,5-A]pyrimidines for antiviral treatment” (Gilead Sciences, Inc., priority 2010, dated 2016)
# Test system: RSV strain A2
# Experiment: RSV antiviral cytoprotection assay in Hep2 cells (96-well and 384-well format, Cell TiterGlo read-out)
# Type: cell-based, Respiratory Syncytial Virus (RSV)
# Conditions: human respiratory syncytial virus, HEp-2, 0.5 uM; RSV-induced cytopathic effect in Hep2 cells; calculated from fitted dose response curve, normalized to 0% and 100%
row,SMILES,inhibition at 0.5 µM
1,COc1cccc(C(=O)N2CCCC[C@H]2c2cc3nc(N4CC[C@H](N)C4)c(C)cn3n2)c1Cl [Compound 377],99%
2,Cc1cn2nc([C@@H]3CCCCN3C(=O)c3ccc(OC(F)F)cc3)cc2nc1N1CC[C@H](N)C1 [Compound 378],48%
3,Cc1cn2nc([C@@H]3CCCCN3C(=O)c3ccccc3OC(F)F)cc2nc1N1CC[C@H](N)C1 [Compound 379],100%
4,Cc1cn2nc([C@@H]3CCCCN3C(=O)c3ccc(F)c(C)c3Cl)cc2nc1N1CC[C@H](N)C1 [Compound 380],80%
5,CCCn1cc(Cl)c(C(=O)N2CCCC[C@H]2c2cc3nc(N4CC[C@H](N)C4)c(C)cn3n2)n1 [Compound 381],100%
6,Cc1cn2nc([C@@H]3CCCCN3C(=O)c3c(Cl)cnn3C(C)C)cc2nc1N1CC[C@H](N)C1 [Compound 382],99%
7,Cc1cn2nc([C@@H]3CCCCN3C(=O)c3cc(-c4ccccc4)on3)cc2nc1N1CC[C@H](N)C1 [Compound 383],99%
8,Cc1cn2nc([C@@H]3CCCCN3C(=O)c3cc(-c4cccnc4)n[nH]3)cc2nc1N1CC[C@H](N)C1 [Compound 384],48%
9,Cc1cn2nc([C@@H]3CCCCN3C(=O)c3ccc4[nH]c(C)c(C)c4c3)cc2nc1N1CC[C@H](N)C1 [Compound 386],97%
10,Cc1cn2nc([C@@H]3CCCCN3C(=O)c3ccccc3C(F)(F)F)cc2nc1N1CC[C@H](N)C1 [Compound 387],77%
11,Cc1cn2nc([C@@H]3CCCCN3C(=O)c3ccnc(-n4cnnc4)c3)cc2nc1N1CC[C@H](N)C1 [Compound 388],100%
12,Cc1cn2nc([C@@H]3CCCCN3C(=O)c3cccc(-n4cnnc4)n3)cc2nc1N1CC[C@H](N)C1 [Compound 389],98%
13,Cc1cn2nc([C@@H]3CCCCN3C(=O)c3ccc(Cl)cc3Cl)cc2nc1N1CC[C@H](N)C1 [Compound 390],86%
14,Cc1cn2nc([C@@H]3CCCCN3C(=O)c3cc(Cl)ccc3Cl)cc2nc1N1CC[C@H](N)C1 [Compound 391],99%
15,Cc1cn2nc([C@@H]3CCCCN3C(=O)c3ccc(Cl)c(Cl)c3)cc2nc1N1CC[C@H](N)C1 [Compound 392],95%
16,Cc1cc(C(=O)N2CCCC[C@H]2c2cc3nc(N4CC[C@H](N)C4)c(C)cn3n2)c2cnn(C)c2n1 [Compound 393],99%
17,Cc1cc(C)n2ncc(C(=O)N3CCCC[C@H]3c3cc4nc(N5CC[C@H](N)C5)c(C)cn4n3)c2n1 [Compound 394],100%

row,SMILES,inhibition at 0.5 µM
1,Cc1cn2nc([C@@H]3CCCCN3C(=O)c3cc(Cl)ncc3Cl)cc2nc1N1CC[C@H](N)C1 [Compound 395],100%
2,Cc1cn2nc([C@@H]3CCCCN3C(=O)c3ccc(Cn4cccn4)o3)cc2nc1N1CC[C@H](N)C1 [Compound 396],99%
3,Cc1cc(C)n2nc(C(=O)N3CCCCC3c3cc4nc(N5CC[C@H](N)C5)c(C)cn4n3)nc2n1 (stereo partly drawn) [Compound 397],3%
4,Cc1cn2nc([C@@H]3CCCCN3C(=O)c3[nH]c4ccc(F)cc4c3C)cc2nc1N1CC[C@H](N)C1 [Compound 398],99%
5,Cc1cc(C(=O)N2CCCC[C@H]2c2cc3nc(N4CC[C@H](N)C4)c(C)cn3n2)c(C(F)(F)F)o1 [Compound 399],100%
6,Cc1cn2nc([C@@H]3CCCCN3C(=O)c3cc(C(F)(F)F)n(C)n3)cc2nc1N1CC[C@H](N)C1 [Compound 400],100%
7,Cc1cn2nc([C@@H]3CCCCN3C(=O)c3ccnn3CC(F)(F)F)cc2nc1N1CC[C@H](N)C1 [Compound 401],100%
8,Cc1cn2nc([C@@H]3CCCCN3C(=O)c3cn(C)nc3C(F)(F)F)cc2nc1N1CC[C@H](N)C1 [Compound 402],99%
9,Cc1ccn2c(F)c(C(=O)N3CCCC[C@H]3c3cc4nc(N5CC[C@H](N)C5)c(C)cn4n3)nc2c1 [Compound 403],100%
10,Cc1cn2nc([C@@H]3CCCCN3C(=O)c3cc(-c4cccs4)n[nH]3)cc2nc1N1CC[C@H](N)C1 [Compound 404],100%
11,Cc1cn2nc([C@@H]3CCCCN3C(=O)c3cc(C4(O)CCCC4)on3)cc2nc1N1CC[C@H](N)C1 [Compound 405],99%
12,Cc1cn2nc([C@@H]3CCCCN3C(=O)c3ccc(-c4ccccc4)cc3)cc2nc1N1CC[C@H](N)C1 [Compound 406],98%
13,Cc1cn2nc([C@@H]3CCCCN3C(=O)c3ccccc3-c3ccccc3)cc2nc1N1CC[C@H](N)C1 [Compound 407],92%
14,Cc1cn2nc([C@@H]3CCCCN3C(=O)c3ccc(-c4cccnc4)cc3)cc2nc1N1CC[C@H](N)C1 [Compound 408],59%
15,Cc1cn2nc([C@@H]3CCCCN3C(=O)c3ccccc3-c3cccnc3)cc2nc1N1CC[C@H](N)C1 [Compound 409],99%
16,Cc1cn2nc([C@@H]3CCCCN3C(=O)c3cccc(-c4cccnc4)c3)cc2nc1N1CC[C@H](N)C1 [Compound 411],95%
17,Cc1cn2nc([C@@H]3CCCCN3C(=O)c3ccccc3)cc2nc1N1CC[C@H](N)C1 [Compound 412],100%

# Same assay, conditions: human respiratory syncytial virus, HEp-2, RSV-induced cytopathic effects, Hep2 cells; class symbols
row,SMILES,EC50
1,COc1cccc(C(=O)N2CCCC[C@H]2c2cc3nc(N4CC[C@H](N)C4)c(C)cn3n2)c1Cl [Compound 377],0.1 to 100 nM
2,Cc1cn2nc([C@@H]3CCCCN3C(=O)c3ccc(OC(F)F)cc3)cc2nc1N1CC[C@H](N)C1 [Compound 378],101 to 1000 nM
3,Cc1cn2nc([C@@H]3CCCCN3C(=O)c3ccccc3OC(F)F)cc2nc1N1CC[C@H](N)C1 [Compound 379],0.1 to 100 nM
4,Cc1cn2nc([C@@H]3CCCCN3C(=O)c3ccc(F)c(C)c3Cl)cc2nc1N1CC[C@H](N)C1 [Compound 380],101 to 1000 nM
5,CCCn1cc(Cl)c(C(=O)N2CCCC[C@H]2c2cc3nc(N4CC[C@H](N)C4)c(C)cn3n2)n1 [Compound 381],0.1 to 100 nM
6,Cc1cn2nc([C@@H]3CCCCN3C(=O)c3c(Cl)cnn3C(C)C)cc2nc1N1CC[C@H](N)C1 [Compound 382],0.1 to 100 nM
7,Cc1cn2nc([C@@H]3CCCCN3C(=O)c3cc(-c4ccccc4)on3)cc2nc1N1CC[C@H](N)C1 [Compound 383],0.1 to 100 nM
8,Cc1cn2nc([C@@H]3CCCCN3C(=O)c3cc(-c4cccnc4)n[nH]3)cc2nc1N1CC[C@H](N)C1 [Compound 384],101 to 1000 nM
9,Cc1cn2nc([C@@H]3CCCCN3C(=O)c3ccc4[nH]c(C)c(C)c4c3)cc2nc1N1CC[C@H](N)C1 [Compound 386],0.1 to 100 nM
10,Cc1cn2nc([C@@H]3CCCCN3C(=O)c3ccccc3C(F)(F)F)cc2nc1N1CC[C@H](N)C1 [Compound 387],101 to 1000 nM
11,Cc1cn2nc([C@@H]3CCCCN3C(=O)c3ccnc(-n4cnnc4)c3)cc2nc1N1CC[C@H](N)C1 [Compound 388],0.1 to 100 nM
12,Cc1cn2nc([C@@H]3CCCCN3C(=O)c3cccc(-n4cnnc4)n3)cc2nc1N1CC[C@H](N)C1 [Compound 389],0.1 to 100 nM
13,Cc1cn2nc([C@@H]3CCCCN3C(=O)c3ccc(Cl)cc3Cl)cc2nc1N1CC[C@H](N)C1 [Compound 390],101 to 1000 nM
14,Cc1cn2nc([C@@H]3CCCCN3C(=O)c3cc(Cl)ccc3Cl)cc2nc1N1CC[C@H](N)C1 [Compound 391],0.1 to 100 nM
15,Cc1cn2nc([C@@H]3CCCCN3C(=O)c3ccc(Cl)c(Cl)c3)cc2nc1N1CC[C@H](N)C1 [Compound 392],0.1 to 100 nM
16,Cc1cc(C(=O)N2CCCC[C@H]2c2cc3nc(N4CC[C@H](N)C4)c(C)cn3n2)c2cnn(C)c2n1 [Compound 393],0.1 to 100 nM
17,Cc1cc(C)n2ncc(C(=O)N3CCCC[C@H]3c3cc4nc(N5CC[C@H](N)C5)c(C)cn4n3)c2n1 [Compound 394],0.1 to 100 nM
18,Cc1cn2nc([C@@H]3CCCCN3C(=O)c3cc(Cl)ncc3Cl)cc2nc1N1CC[C@H](N)C1 [Compound 395],0.1 to 100 nM

row,SMILES,EC50
1,Cc1cn2nc([C@@H]3CCCCN3C(=O)c3ccc(Cn4cccn4)o3)cc2nc1N1CC[C@H](N)C1 [Compound 396],0.1 to 100 nM
2,Cc1cc(C)n2nc(C(=O)N3CCCCC3c3cc4nc(N5CC[C@H](N)C5)c(C)cn4n3)nc2n1 (stereo partly drawn) [Compound 397],1000 to 10000 nM
3,Cc1cn2nc([C@@H]3CCCCN3C(=O)c3[nH]c4ccc(F)cc4c3C)cc2nc1N1CC[C@H](N)C1 [Compound 398],0.1 to 100 nM
4,Cc1cc(C(=O)N2CCCC[C@H]2c2cc3nc(N4CC[C@H](N)C4)c(C)cn3n2)c(C(F)(F)F)o1 [Compound 399],0.1 to 100 nM
5,Cc1cn2nc([C@@H]3CCCCN3C(=O)c3cc(C(F)(F)F)n(C)n3)cc2nc1N1CC[C@H](N)C1 [Compound 400],0.1 to 100 nM
6,Cc1cn2nc([C@@H]3CCCCN3C(=O)c3ccnn3CC(F)(F)F)cc2nc1N1CC[C@H](N)C1 [Compound 401],0.1 to 100 nM
7,Cc1cn2nc([C@@H]3CCCCN3C(=O)c3cn(C)nc3C(F)(F)F)cc2nc1N1CC[C@H](N)C1 [Compound 402],0.1 to 100 nM
8,Cc1ccn2c(F)c(C(=O)N3CCCC[C@H]3c3cc4nc(N5CC[C@H](N)C5)c(C)cn4n3)nc2c1 [Compound 403],0.1 to 100 nM
9,Cc1cn2nc([C@@H]3CCCCN3C(=O)c3cc(-c4cccs4)n[nH]3)cc2nc1N1CC[C@H](N)C1 [Compound 404],0.1 to 100 nM
10,Cc1cn2nc([C@@H]3CCCCN3C(=O)c3cc(C4(O)CCCC4)on3)cc2nc1N1CC[C@H](N)C1 [Compound 405],0.1 to 100 nM
11,Cc1cn2nc([C@@H]3CCCCN3C(=O)c3ccc(-c4ccccc4)cc3)cc2nc1N1CC[C@H](N)C1 [Compound 406],0.1 to 100 nM
12,Cc1cn2nc([C@@H]3CCCCN3C(=O)c3ccccc3-c3ccccc3)cc2nc1N1CC[C@H](N)C1 [Compound 407],0.1 to 100 nM
13,Cc1cn2nc([C@@H]3CCCCN3C(=O)c3ccc(-c4cccnc4)cc3)cc2nc1N1CC[C@H](N)C1 [Compound 408],101 to 1000 nM
14,Cc1cn2nc([C@@H]3CCCCN3C(=O)c3ccccc3-c3cccnc3)cc2nc1N1CC[C@H](N)C1 [Compound 409],0.1 to 100 nM
15,Cc1cn2nc([C@@H]3CCCCN3C(=O)c3cc(-c4ccccc4)ccn3)cc2nc1N1CC[C@H](N)C1 [Compound 410],1000 to 10000 nM
16,Cc1cn2nc([C@@H]3CCCCN3C(=O)c3cccc(-c4cccnc4)c3)cc2nc1N1CC[C@H](N)C1 [Compound 411],101 to 1000 nM
17,Cc1cn2nc([C@@H]3CCCCN3C(=O)c3ccccc3)cc2nc1N1CC[C@H](N)C1 [Compound 412],0.1 to 100 nM
